Earlier results, collected in patent US8716482B2, “Substituted aminopiperidines as dipeptidyl peptidase-IV inhibitors for the treatment of diabetes” (Merck Sharp & Dohme Corp., priority 2009, dated 2014).

Tests used:
DPP-4 = DPP-4 (Homo sapiens (Human), UniProt P27487)
hematopoiesis = conditions: mouse, cyclophosphamide-induced neutropenia

DPP-4, sequence (P27487 39-766, species assumed): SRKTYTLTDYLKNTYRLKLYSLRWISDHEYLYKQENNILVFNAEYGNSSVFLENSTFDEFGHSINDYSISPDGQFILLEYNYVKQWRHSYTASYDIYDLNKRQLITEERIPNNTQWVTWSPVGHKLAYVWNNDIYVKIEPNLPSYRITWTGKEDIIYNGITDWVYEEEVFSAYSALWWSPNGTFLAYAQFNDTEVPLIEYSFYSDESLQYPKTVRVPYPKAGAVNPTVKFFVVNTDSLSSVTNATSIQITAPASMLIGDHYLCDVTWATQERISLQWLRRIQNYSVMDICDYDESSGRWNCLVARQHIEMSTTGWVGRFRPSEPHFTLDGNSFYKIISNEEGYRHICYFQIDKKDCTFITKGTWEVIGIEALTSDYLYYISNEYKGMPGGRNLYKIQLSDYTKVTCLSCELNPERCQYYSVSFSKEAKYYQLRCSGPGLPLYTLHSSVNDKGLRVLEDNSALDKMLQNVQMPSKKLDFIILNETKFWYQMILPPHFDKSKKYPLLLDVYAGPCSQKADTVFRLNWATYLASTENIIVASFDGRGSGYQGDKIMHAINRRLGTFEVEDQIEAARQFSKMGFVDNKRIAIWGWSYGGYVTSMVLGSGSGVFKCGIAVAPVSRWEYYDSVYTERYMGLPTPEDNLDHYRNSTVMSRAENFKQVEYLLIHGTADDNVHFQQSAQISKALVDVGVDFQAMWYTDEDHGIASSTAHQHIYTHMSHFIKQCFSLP

degradation of GRF in plasma to GRF[3-44] (DPP-4)	Molecule	hematopoiesis (hematopoiesis)
prevented	diprotin A	–
–	CC(C)[C@H](N)C(=O)N1CCC[C@H]1B(O)O [Val-Boro-Pro]	stimulated hematopoiesis
